Source: patent publication US20090036474A1, “Quinazoline derivatives for use against cancer” (priority 2004, published 2009)

Tests used:
PDGF receptor kinase = details: Nature Reviews 2002; Cancer Research 1996; cited from earlier work
[1] = test system: human glioblastoma lines U343 and U87; details: U343 and U87 injected into the brains of nude mice; Cancer Research 2000; cited from earlier work
[2] = test system: dermatofibrosarcoma protruberans cell cultures; details: Cancer Research 2001; cited from earlier work
KDR tyrosine kinase = target: T1, KDR tyrosine kinase (Homo sapiens, UniProt P35968); assay: In vitro enzyme assay (ELISA), Test (a), KDR; type: biochemical; details: ATP 8 μM, read-out: IC50 versus KDR tyrosine kinase
T1 construct: a DNA fragment encoding most of the cytoplasmic domain, commencing with methionine 806 and including the termination codon; made in house; host or cells: Sf9 insect cells (recombinant baculovirus)
T1 sequence (P35968 786-1356 limits assumed): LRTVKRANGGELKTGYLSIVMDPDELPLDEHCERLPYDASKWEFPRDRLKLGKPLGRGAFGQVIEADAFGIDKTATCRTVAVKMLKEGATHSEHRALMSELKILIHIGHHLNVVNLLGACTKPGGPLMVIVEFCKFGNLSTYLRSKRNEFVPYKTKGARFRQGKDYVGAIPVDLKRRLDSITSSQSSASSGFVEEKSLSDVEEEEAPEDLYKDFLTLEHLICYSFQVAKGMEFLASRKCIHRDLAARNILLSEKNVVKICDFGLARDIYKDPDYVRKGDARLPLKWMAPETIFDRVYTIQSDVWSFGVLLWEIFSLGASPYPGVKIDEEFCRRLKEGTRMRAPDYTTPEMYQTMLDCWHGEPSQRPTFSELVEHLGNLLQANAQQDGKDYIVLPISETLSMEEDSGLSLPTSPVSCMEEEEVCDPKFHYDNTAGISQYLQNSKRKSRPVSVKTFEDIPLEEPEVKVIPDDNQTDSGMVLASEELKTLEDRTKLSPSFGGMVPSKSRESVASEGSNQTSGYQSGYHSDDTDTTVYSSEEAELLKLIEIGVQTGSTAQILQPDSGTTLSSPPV
Experimental: (§1) The ability of test compounds to inhibit the phosphorylation of a tyrosine containing polypeptide substrate by the tyrosine kinase enzymes PDGFRα, PDGFRβ and KDR was assessed using conventional ELISA assays. DNA encoding the PDGFRα, PDGFRβ or KDR receptor cytoplasmic domains may be obtained by total gene synthesis (International Biotechnology Lab., 1987, 5(3), 19-25) or by cloning. The DNA fragments may be expressed in a suitable expression system to obtain polypeptide with tyrosine kinase activity. For example, PDGFRα, PDGFRβ and KDR receptor cytoplasmic domains, obtained by expression of recombinant protein in insect cells, can be shown to display intrinsic tyrosine kinase activity. In the case of the VEGF receptor KDR (Genbank Accession No. L04947), a DNA fragment encoding most of the cytoplasmic domain, commencing with methionine 806 and including the termination codon may be cloned into a baculovirus transplacement vector [for example pAcYM1 (see The Baculovirus Expression System: A Laboratory Guide, L. A. King and R. D. Possee, Chapman and Hall, 1992) or pAc360 or pBlueBacHis (available from Invitrogen Corporation)]. This recombinant construct may be co-transfected into insect cells [for example Spodoptera frugiperda 21(Sf21) or Spodoptera frugiperda 9(Sf9)] with viral DNA (for example Pharmingen BaculoGold) to prepare recombinant baculovirus. Details of the methods for the assembly of recombinant DNA molecules and the preparation and use of recombinant baculovirus can be found in standard texts, for example Sambrook et al., 1989, Molecular cloning—A Laboratory Manual, 2nd edition, Cold Spring Harbour Laboratory Press and O'Reilly et al., 1992, Baculovirus Expression Vectors—A Laboratory Manual, W. H. Freeman and Co, New York).
For expression, Sf9 cells were infected with plaque-pure KDR recombinant virus and harvested 48 hours later. […]

phospho-Tyr751 PDGFRβ = target: T2, phospho-Tyr751 PDGFRβ (Homo sapiens, UniProt P09619); assay: In vitro phospho-Tyr751 PDGFRβ ELISA assay in MG63 osteosarcoma cells, Test (b); type: cell-based; details: MG63 cells stimulated with PDGFBB, read-out: IC50 versus phospho-Tyr751 PDGFRβ
T2 construct: phosphorylation of PDGFR expressed on MG63 osteosarcoma cells; endogenous in cells; host or cells: MG63 osteosarcoma cells
T2 sequence (P09619 33-1106): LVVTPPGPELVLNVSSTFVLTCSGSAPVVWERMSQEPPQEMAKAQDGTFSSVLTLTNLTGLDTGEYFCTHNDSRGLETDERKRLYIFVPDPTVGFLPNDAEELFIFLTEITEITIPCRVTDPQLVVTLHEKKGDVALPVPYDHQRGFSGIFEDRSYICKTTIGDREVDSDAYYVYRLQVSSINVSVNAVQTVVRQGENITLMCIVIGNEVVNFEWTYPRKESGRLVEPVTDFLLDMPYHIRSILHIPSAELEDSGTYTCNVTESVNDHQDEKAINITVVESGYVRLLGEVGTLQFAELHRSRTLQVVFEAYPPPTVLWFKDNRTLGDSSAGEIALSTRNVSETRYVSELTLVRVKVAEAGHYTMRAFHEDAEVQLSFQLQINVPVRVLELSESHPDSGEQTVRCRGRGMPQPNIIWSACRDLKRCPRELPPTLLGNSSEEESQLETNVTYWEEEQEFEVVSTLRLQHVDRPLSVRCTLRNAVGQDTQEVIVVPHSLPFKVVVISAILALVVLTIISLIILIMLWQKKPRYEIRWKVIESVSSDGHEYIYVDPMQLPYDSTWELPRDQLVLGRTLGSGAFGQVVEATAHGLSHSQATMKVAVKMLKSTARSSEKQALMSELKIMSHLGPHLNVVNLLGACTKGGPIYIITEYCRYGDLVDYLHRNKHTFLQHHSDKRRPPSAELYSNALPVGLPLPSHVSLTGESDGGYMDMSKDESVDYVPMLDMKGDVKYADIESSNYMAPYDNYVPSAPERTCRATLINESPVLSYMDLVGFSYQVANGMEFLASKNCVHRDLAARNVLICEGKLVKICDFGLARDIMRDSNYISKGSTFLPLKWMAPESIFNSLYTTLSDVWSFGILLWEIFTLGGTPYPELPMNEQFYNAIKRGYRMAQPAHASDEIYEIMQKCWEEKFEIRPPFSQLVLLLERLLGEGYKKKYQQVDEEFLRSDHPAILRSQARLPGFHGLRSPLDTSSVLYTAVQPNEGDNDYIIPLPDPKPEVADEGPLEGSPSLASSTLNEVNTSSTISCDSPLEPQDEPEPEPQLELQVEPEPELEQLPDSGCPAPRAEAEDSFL
Experimental: This assay uses a conventional ELISA method to determine the ability of test compounds to inhibit phosphorylation of tyrosine in PDGFRβ.
An MG63 osteosarcoma cell line [American Type Culture Collection (ATCC) CCL 1427] was routinely maintained at 37° C. with 7.5% CO2 in Dulbecco's modified Eagle's growth medium (DMEM; Sigma-Aldrich; Catalogue No. D6546) containing 10% foetal calf serum (FCS; Sigma-Aldrich; Catalogue No. F7524) and 2 mM L-glutamine (Invitrogen Ltd., Paisley, UK; Catalogue No. 25030-024).
For the assay, the cells were detached from the culture flask using a trypsin/ethylenediaminetetraacetic acid (EDTA) mixture (Invitrogen Ltd.; Catalogue No. 15400-054) and resuspended in test media comprising DMEM without phenol red (Sigma-1-Aldrich; Catalogue No. D5921) containing 1% charcoal-stripped-foetal calf serum (FCS) (Sigma-Aldrich; Catalogue No. F7524, stripped by incubation with dextran-coated activated charcoal at 55° C. for 30 minutes with continuous stirring followed by removal of the charcoal by centrifugation and filter sterilisation) and 2 mM L-glutamine (Invitrogen Ltd., Catalogue No. 25030-024) to give 6×10^4 cells per ml. […]

PDGFRα tyrosine kinase = target: T3, PDGFRα tyrosine kinase (Homo sapiens, UniProt P16234); assay: In vitro enzyme assay (ELISA), Test (a), PDGFRα; type: biochemical; details: ATP 14 μM, read-out: IC50 versus PDGFRα tyrosine kinase
T3 construct: PDGFRα, PDGFRβ and KDR receptor cytoplasmic domains, obtained by expression of recombinant protein in insect cells; purchased Upstate Biotechnology Inc. 14-467; host or cells: Sf9 insect cells
T3 sequence (P16234 550-1089 limits assumed): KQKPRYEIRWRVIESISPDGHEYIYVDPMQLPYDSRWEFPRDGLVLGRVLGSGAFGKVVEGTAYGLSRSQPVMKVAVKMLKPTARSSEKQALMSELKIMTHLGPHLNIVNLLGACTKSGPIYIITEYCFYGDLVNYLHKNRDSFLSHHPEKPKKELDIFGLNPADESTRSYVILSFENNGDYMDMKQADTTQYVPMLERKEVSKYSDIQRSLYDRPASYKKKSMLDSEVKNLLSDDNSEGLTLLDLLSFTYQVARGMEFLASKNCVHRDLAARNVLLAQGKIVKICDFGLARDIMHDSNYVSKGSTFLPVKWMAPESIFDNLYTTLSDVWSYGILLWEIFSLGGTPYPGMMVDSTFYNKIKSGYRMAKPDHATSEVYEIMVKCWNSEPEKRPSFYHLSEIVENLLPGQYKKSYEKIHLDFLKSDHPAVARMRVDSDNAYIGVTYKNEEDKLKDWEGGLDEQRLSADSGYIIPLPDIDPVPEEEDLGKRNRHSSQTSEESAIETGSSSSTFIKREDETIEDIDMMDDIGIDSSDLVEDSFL
Experimental: as §1, with “Details of the methods for the assembly of recombinant DNA molecules and the preparation and use of recombinant baculovirus can be found in standard texts, for example Sambrook et al., 1989, Molecular cloning—A Laboratory Manual, 2nd edition, Cold Spring Harbour Laboratory Press and O'Reilly et al., 1992, Baculovirus Expression Vectors—A Laboratory Manual, W. H. Freeman and Co, New York).” left out

PDGFRβ tyrosine kinase = target: T4, PDGFRβ tyrosine kinase (Homo sapiens, UniProt P09619); assay: In vitro enzyme assay (ELISA), Test (a), PDGFRβ; type: biochemical; details: ATP 2.8 μM, read-out: IC50 versus PDGFRβ tyrosine kinase
T4 construct: PDGFRα, PDGFRβ and KDR receptor cytoplasmic domains, obtained by expression of recombinant protein in insect cells; purchased Upstate Biotechnology Inc. 14-463; host or cells: Sf9 insect cells
T4 sequence (P09619 554-1106 limits assumed): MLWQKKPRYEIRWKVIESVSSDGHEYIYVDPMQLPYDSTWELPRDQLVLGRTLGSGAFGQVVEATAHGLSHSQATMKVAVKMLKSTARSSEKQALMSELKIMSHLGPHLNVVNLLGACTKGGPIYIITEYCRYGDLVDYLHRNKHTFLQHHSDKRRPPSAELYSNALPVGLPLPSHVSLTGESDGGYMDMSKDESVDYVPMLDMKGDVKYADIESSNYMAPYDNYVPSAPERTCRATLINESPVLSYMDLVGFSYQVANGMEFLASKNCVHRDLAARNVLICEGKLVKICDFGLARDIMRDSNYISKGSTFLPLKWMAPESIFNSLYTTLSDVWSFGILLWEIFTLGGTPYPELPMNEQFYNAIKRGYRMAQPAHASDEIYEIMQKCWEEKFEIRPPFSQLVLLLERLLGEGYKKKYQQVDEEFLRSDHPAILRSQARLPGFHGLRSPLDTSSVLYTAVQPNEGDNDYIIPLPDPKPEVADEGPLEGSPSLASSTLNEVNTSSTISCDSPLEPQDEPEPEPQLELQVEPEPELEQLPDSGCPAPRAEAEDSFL
Experimental: as §1, with “Details of the methods for the assembly of recombinant DNA molecules and the preparation and use of recombinant baculovirus can be found in standard texts, for example Sambrook et al., 1989, Molecular cloning—A Laboratory Manual, 2nd edition, Cold Spring Harbour Laboratory Press and O'Reilly et al., 1992, Baculovirus Expression Vectors—A Laboratory Manual, W. H. Freeman and Co, New York).” left out

Row | IC50 (KDR tyrosine kinase) [nM] | IC50 (phospho-Tyr751 PDGFRβ) [nM] | IC50 (PDGFRα tyrosine kinase) [nM] | IC50 (PDGFRβ tyrosine kinase) [nM] | Structure (SMILES) | inhibition of PDGF receptor kinase activity (PDGF receptor kinase) | growth of glioblastoma tumours [1] | in vivo growth of dermatofibrosarcoma protruberans cell cultures [2]
1 | – | – | – | – | Cc1ccc(NC(=O)c2ccc(CN3CCN(C)CC3)cc2)cc1Nc1nccc(-c2cccnc2)n1 [imatinib] | inhibit PDGF receptor kinase activity | inhibits the growth | inhibits the in vivo growth
2 | ~2 | ~1 | – | – | COc1cc2ncnc(Oc3cnn(CC(=O)Nc4ccc5c(c4)NCC5)c3)c2cc1OC [Example 40, N-(6-indolinyl)-2-[4-(6,7-dimethoxyquinazolin-4-yloxy)pyrazol-1-yl]acetamide] | – | – | –
3 | ~30 | – | ~7 | ~0.5 | COc1cc2ncnc(Oc3cnn(CC(=O)Nc4ccc5c(c4)OCO5)c3)c2cc1OC [Example 1, N-(3,4-methylenedioxyphenyl)-2-[4-(6,7-dimethoxyquinazolin-4-yloxy)pyrazol-1-yl]acetamide] | – | – | –
